Assay results: patent publication US8895502B2, “β2-glycoprotein I peptide inhibitors” (Kansas State University Research Foundation, priority 2010, dated 2014)
“Also recorded” adds a separate entry of the source. Ends that are not written are not given here.

Key:
[1] = test system: hypoxic MS-1 endothelial cells; assay: In vitro hypoxia and immunocytochemistry: β2-GPI / anti-β2-GPI mAb binding to hypoxic endothelial cells; type: cell-based, mouse; conditions: peptide 40 μM during 4 hours hypoxia
Procedure: MS-1 endothelial cells were subjected to hypoxia or normoxia to validate β2-GPI binding in vitro. Hypoxic MS-1 endothelial cells (ATCC CRL-2279) received degassed, serum-free DMEM and were placed in a hypoxia chamber containing 94% nitrogen and 5% CO2. Normoxic cells received DMEM supplemented with 10% heat-inactivated sera from Rag-1^−/− mice in 8% CO2. After 4 hours at 37° C., all cells received fresh medium containing 10% heat-inactivated Rag-1^−/− sera and were incubated in normoxic conditions for 1 hour at 37° C. Additional peptide-inhibition studies were performed by addition of peptides (40 μM final concentration) during the hypoxic period. Cells were methanol fixed and stained with the anti-β2-GPI mAb (Millipore; Billerica, Mass.) followed by an anti-mouse IgG antibody to determine β2-GPI binding. Anti-β2-GPI binding was determined by allowing anti-β2-GPI mAb (Millipore) to bind during the 1 hour normoxic period. The cells were then stained with anti-mouse IgG antibodies (Jackson ImmunoResearch; West Grove, Pa.) as previously described (Fleming, S. D. et al., J. Immunol. 173:7055-7061 (2004)). Slides were mounted with DAPI (Blue) to identify the nuclei. The fluorescence was determined in a blind manner using a Nikon 80i fluorescent microscope with a 40× Plan Fluor objective and images acquired using a CoolSnap Cf camera (Photometrics; Tucson, Ariz.) and MetaVue Imaging software (Molecular Devices; Sunnyvale, Calif.). Each photomicrograph in the Figures is representative of 3 experiments with 4-6 photomicrographs per treatment group in each experiment. Bar=40 μm. Hypoxia was conducted similar to previous studies with the following modifications (Banerjee, S. et al., Reprod. Biol. Endocrinol. 7:4 (2009)). Hypoxic cells received degassed, serum-free DMEM and were placed in a hypoxia chamber containing 94% nitrogen, 5% CO2, and 1% O2. Normoxic cells received normal DMEM with 10% FBS in 8% CO2. After 2 hours at 37° C., all cells received fresh medium containing 10% heat-inactivated Rag-1^−/− sera and then were incubated under normoxic conditions for 1 hour at 37° C. Cells receiving β2-GPI peptides were administered the peptides (40 μM) during the 2 hours of either hypoxia or normoxia. IgG binding was determined using anti-mouse IgG antibodies (Jackson ImmunoResearch) as previously described (Fleming, S. D. et al., J. Immunol. 173:7055-7061 (2004)). Similarly, after Sham or IR, intestinal sections from peptide-treated mice were stained with anti-IgG antibodies to determine antibody deposition. The fluorescence was determined in a blind manner using a Nikon 80i fluorescent microscope and images acquired using a CoolSnap Cf camera (Photometrics) and MetaVue Imaging software (Molecular Devices).

F4/80 = assay: Intestinal IR, F4/80 macrophage marker immunohistochemistry; type: in vivo, mouse; set-up: key to F4/80 Deposition: + indicates significant difference from Sham treated mice; − indicates not significantly different from C57B1/6 sham treated mice; +/− indicates no significant difference from either C57B1/6 mice subjected to either Sham or IR; conditions: for F4/80 Deposition: C57Bl/6 mice subjected to IR, peptide 40 μM i.v. 5 min prior to artery occlusion; for expression of the mature macrophage marker (F4/80) after IR: C57Bl/6 mice, peptide prior to IR
Procedure: (§1) C57Bl/6 and Rag-1^−/− mice were subjected to ischemia followed by reperfusion similar to previously described studies (Moses, T. et al., J. Leukoc. Biol. 86:971-980 (2009)). Briefly, ketamine (16 mg/kg) and xylazine (80 mg/kg) were used to anesthetize the mice. Buprenorphine (0.06 mg/kg) was then administered for pain. A midline laparotomy was performed to expose the abdominal cavity of the mice, which were then allowed to equilibrate for 30 min. Body temperature was maintained at 37° C. using a water-circulating heat pad. Placing a warm, saline moistened piece of gauze over the abdominal cavity prevented peritoneal desiccation. […] Ischemia was noted by the intestine changing from a pink color to a gray color. After 30 min of ischemia, the clamp was removed and the intestines were allowed to reperfuse for 5, 10, 15, or 120 min. […] Mice treated with the various β2-GPI peptides underwent the same procedure with i.v. administration of the peptides (40 μM) 5 min prior to artery occlusion. Peptides 296, 305, and 296Cys to Ser were dissolved in N. Saline (0.9% NaCl) and injected i.v. in 100-μL volumes. Peptides 100 and 181 were dissolved in DMSO prior to diluting 1/100 in N. Saline. Additional mice received peptides prior to Sham treatment.
(§2) After euthanasia, an additional 2-cm intestinal section from each mouse was immediately snap frozen in O.C.T. freezing medium and 8 μm sections were placed on slides for immunohistochemistry. The C3 deposition and F4/80 expression on the tissue sections were detected by staining with a purified rat-anti-mouse C3 (Hycult Biotechnologies; Plymouth Meeting, Pa.) or F4/80 (eBioscience; San Diego, Calif.) antibody followed by a Texas-red conjugated donkey-anti-rat IgG secondary antibody (Jackson Immunoresearch). CD31 (PECAM-1) and CD106 (VCAM-1) were detected by FITC conjugated rat anti-mouse CD31 or CD106 (Biolegend; San Diego, Calif.) antibodies. Each experiment contained serial sections stained with the appropriate isotype control antibodies. All slides were mounted with ProLong Gold (Invitrogen). Images were obtained at room temperature using a Nikon Eclipse 80i microscope equipped with a CoolSnap CF camera (Photometrics) and analyzed using Metavue software (Molecular Devices). The fluorescence was semi-quantitated using Image J software (NIH) using the fluorescent area fraction after setting threshold for each experiment. The average of the isotype control was subtracted from each photo.

CD31 (PECAM-1) = assay: Intestinal IR, CD31 immunohistochemistry; type: in vivo, mouse; set-up: key to CD31 Deposition: + indicates significant difference from Sham treated mice; − indicates not significantly different from C57B1/6 sham treated mice; +/− indicates no significant difference from either C57B1/6 mice subjected to either Sham or IR; conditions: for CD31 Deposition: C57Bl/6 mice subjected to IR, peptide 40 μM i.v. 5 min prior to artery occlusion; for expression of adhesion molecule CD31 after IR: C57Bl/6 mice, peptide prior to IR
Procedure: as §1, §2

IL-6 = assay: Intestinal IR, ex vivo IL-6 generation; type: in vivo, mouse; set-up: key to IL-6 Induction: + indicates significant difference from Sham treated mice; − indicates not significantly different from C57B1/6 sham treated mice; +/− indicates no significant difference from either C57B1/6 mice subjected to either Sham or IR; conditions: for IL-6 Induction: C57Bl/6 mice subjected to IR, peptide 40 μM i.v. 5 min prior to artery occlusion; for IR induced IL-6 production: C57Bl/6 mice, peptide prior to IR
Procedure: as §1
Ex vivo generation of eicosanoids by mid-jejunal tissue was determined. Immediately after collection, a 2-cm intestinal section from each mouse was minced, washed, resuspended in 37° C. oxygenated Tyrode's buffer (Sigma-Aldrich; St. Louis, Mo.), incubated at 37° C. for 20 minutes, and the supernatant collected. PGE2 and LTB4 concentrations were determined using enzyme immunoassay kits (Cayman Chemical; Ann Arbor, Mich.). IL-6 and IL-12 concentrations were determined using a Milliplex MAP immunoassay kit (Millipore) and read on a Milliplex Analyzer (Millipore). All eicosanoid and cytokine concentrations were standardized to the total tissue protein content.
Total peroxidase, LTB4, PGE2, IL-6, IL-12p40, and IL-12p70 concentrations were determined using the procedures described in Example 1.

Substance | anti-β2-GPI mAb binding to hypoxic MS-1 cells [1] | β2-GPI binding to hypoxic endothelial cells [1] | F4/80 Deposition (F4/80) | expression of the mature macrophage marker (F4/80) after IR (F4/80) | CD31 Deposition (CD31 (PECAM-1)) | expression of adhesion molecule CD31 after IR (CD31 (PECAM-1)) | IL-6 Induction (IL-6) | IR induced IL-6 production (IL-6)
H-IHFYCKNKEKKCSYTVEAHCRDGTI-OH (cysteine pairing not given here) [peptide 296] | did not bind | capable of preventing β2-GPI from binding | − | reduced macrophage to Sham levels | − | inhibited | − | attenuated; also recorded: inhibit
H-IHFYSKNKEKKSSYTVEAHSRDGTI-OH [peptide 296Cys-Ser] |  | attenuated β2-GPI binding | − | reduced macrophage to Sham levels | − | inhibited | − | attenuated; also recorded: inhibit
H-IPSCFKEHSSLAFWKTDASELTPC-NH2 (cysteine pairing not given here) [peptide 322, 18] | did not inhibit antibody binding |  | + | increased in response to IR | + |  | + | did not inhibit
H-KKCSYTVEAHCRDGTIEIPSCFKEHS-OH (cysteine pairing not given here) [peptide 305, 10] | did not bind | capable of preventing β2-GPI from binding | − | reduced macrophage to Sham levels | + | inhibited | − | attenuated; also recorded: inhibited
H-KNISFACNPGFFLNG-NH2 [peptide 100, 16, reference compound] | did not inhibit antibody binding |  | + | reduced macrophage to Sham levels | + | significantly different from both Sham and IR treated mice | +/− | attenuated IL-6 production
